# Assay results published in US10336734B2, “Inhibitors of ACK1/TNK2 tyrosine kinase” (H. LEE MOFFITT CANCER CENTER AND RESEARCH INSTITUTE, INC., priority 2015, dated 2019).
# How the values were obtained:
# C4-2B = assay: Cell viability/proliferation of PC cell lines, C4-2B; type: cell-based; details: 96 hr, read-out: IC50, suppression of proliferation
# Excerpt: (§1) FIG. 7A through 7F. (R)-9bMS overcome enzalutamide-resistance of CRPCs. […] Data represent mean±s.e.m. (n=3) from one of three independent experiments. […] Data represent mean±s.e.m. (n=3) from one of three independent experiments. […] Data represent mean±standard error of the mean (s.e.m.) (n=3) from one of three independent experiments.*p<0.05. […] Cell cycle analysis of prostate cell lines treated with (R)-9bMS (24 hr).
# (§2) To investigate the anti-tumor activity of ACK1 inhibitor, we first analyzed the ability (R)-9bMS to suppress proliferation of PC cell lines.
# VCaP = assay: Cell viability/proliferation of PC cell lines, VCaP; type: cell-based; details: 96 hr, read-out: IC50, suppression of proliferation
# Excerpt: as §1, §2
# LAPC4 = assay: Cell viability/proliferation of PC cell lines, LAPC4; type: cell-based; details: LAPC4, 96 hr; read-out: IC50, suppression of proliferation
# Excerpt: as §1, §2
# LNCaP = assay: Cell viability/proliferation of PC cell lines, LNCaP; type: cell-based; details: 96 hr, read-out: IC50, suppression of proliferation
# Excerpt: as §1, §2
# [1] = system: enzalutamide-resistant C4-2B cell line; assay: Cell viability and AR expression, enzalutamide-resistant C4-2B cells; type: cell-based
# Excerpt: as §1, with “7F.” for “7F. (R)-9bMS overcome enzalutamide-resistance of CRPCs.”
# C4-2B xenograft tumors = assay: C4-2B CRPC xenograft in castrated SCID mice; type: in vivo
# Description: FIG. 8A through 8F. (R)-9bMS mitigates CRPC tumor growth. […] Once formed palpable tumors, mice were injected with vehicle (10% DMSO in PBS) or (R)-9bMS (50 mg/kg of body) for 6 days a week for five weeks (n=9 mice for each treatment). Tumor volumes were measured. Data represent mean±s.e.m. […] Data represent mean±standard error of the mean (s.e.m.) (n=3) from one of three independent experiments. **p<0.01.
# To investigate the effect of (R)-9bMS on CRPC xenograft tumor growth, C4-2B cells were implanted in castrated SCID mice.
# [2] = system: LNCaP-caAck xenograft tumors; assay: LNCaP-caAck xenograft in castrated SCID mice; type: in vivo; details: 50 mg/kg, 6 days a week for four weeks
# Description: FIG. 9. ACK1 inhibitor (R)-9bMS suppresses xenograft tumor growth in castrated mice. Male SCID mice were castrated and injected with LNCaP-caAck cells. Once mice formed palpable tumors, mice were injected with vehicle (10% DMSO in PBS) or (R)-9bMS (50 mg/kg of body) for 6 days a week for four weeks (n=7 mice for each treatment). Tumor volumes were measured.
# AR-V7 = AR-V7 mRNA (qRT-PCR) and variant protein (immunoblot) in PC cells; type: cell-based; details: VCaP 3.5 μM, 16 hr; VCaP and LAPC4 immunoblot
# Excerpt: FIG. 1A through 1F. Inhibition of ACK1 kinase activity by (R)-9bMS (DZ1-067 mesylate salt) suppresses AR and AR-V7 expression. […] Data represent mean±s.e.m. (n=3) from one of three independent experiments. *p<0.05. FIG. 1B and FIG. 1C show immunoblot analysis of androgen-deprived VCaP and LAPC4 cells treated with (R)-9bMS. […] FIG. 1E and FIG. 1F show qRT-PCR analysis of AR and PSA in PC3 cells transfected with caACK or kdACK constructs. Data represent mean±s.e.m. (n=3) from one of three independent experiments. **p<0.01.
# We assessed AR-V7 mRNA levels upon treatment with (R)-9bMS (DZ1-067 mesylate salt).
# [3] = system: histone H4 Y88-phosphorylation; assay: Immunoblot of H4 Y88-phosphorylation in ligand-treated PC cells; type: cell-based; details: serum and androgen starved PC cells, ligand activated; 5 μM (DHT 10 nM)
# Description: FIG. 2A through 2C. ACK1 inhibitor (R)-9bMS suppresses epigenetic modification of histone H4 at tyrosine 88.
# To assess endogenous H4-phosphorylation, serum and androgen starved PC cells were treated with ligands to activate ACK1. It led to robust H4 Y88-phosphorylation, suppressed upon (R)-9bMS treatment (FIG. 2A). […] Moreover, H4 Y88-phosphorylation was also detected in human CRPCs using mass spectrometry, which was validated by immunoblotting (FIG. 3A-3C).
# [4] = system: pY88-H4 epigenetic marks upstream of AR gene; assay: ChIP-qPCR at AREM1-3 sites in C4-2B cells; type: cell-based
# Excerpt: FIG. 5A through 5J. AR transcription is regulated by epigenetic modification of histone H4 at tyrosine 88 is sensitized byc(R)-9bMS. FIG. 5A through 5D show ChIP with pY88-H4 antibodies, followed by qPCR using primers corresponding to AREM1-3 and control (gene desert) sites of C4-2B cells treated with (R)-9bMS. Data represent mean±s.e.m. (n=3) from one of three independent experiments. **p<0.01. […] Data represent mean±s.e.m. (n=3) from one of three independent experiments. *p<0.05, **p<0.01. FIGS. 5F and 5G show ChIP with pY88-H4 antibodies, followed by qPCR using primers corresponding to AREM2 and AREM1 site of C4-2B cells transfected with ACK1, AR and control siRNA. Data represent mean±s.e.m. (n=3) from one of three independent experiments. *p<0.05, **p<0.01. […] Data represent mean±s.e.m. (n=3) from one of three independent experiments. *p<0.05. FIGS. 5I and 5J show qRT-PCR analysis of AR and PSA in LAPC4 cells transfected with FLAG-tagged H4 or Y88F mutant H4 expressing constructs. Data represent mean±s.e.m. (n=3) from one of three independent experiments.*p<0.05, **p<0.01.
# FIG. 6A through 6F. Recruitment of the MLL2/WDR5 complex and deposition of H3K4me3 epigenetic marks upstream of the AR gen can be erased by (R)-9bMS. […]
# PC cells = assay: Cell cycle and apoptosis of PC cells; type: cell-based
# Excerpt: as §1, §2
# [5] = 50 mg/kg, 6 days a week for five weeks
structure (smiles),measurement,setting,value
CN1CCN(c2ccc(Nc3ncc(Cl)c(NC[C@H]4CCCO4)n3)cc2)CC1 [(R)-9bMS],IC50,C4-2B,400 nM
same,IC50,VCaP,450 nM
same,IC50,LAPC4,750 nM
same,IC50,LNCaP,1800 nM
same,Sensitivity of enzalutamide-resistant cells,"[1]; enzalutamide-resistant C4-2B cells, 96 hr",retained sensitivity
same,AR expression in enzalutamide-resistant cells,[1]; immunoblot,able to suppress AR expression
same,Organ histology (H&E),C4-2B xenograft tumors; 50 mg/kg,histologically normal
same,body weights,C4-2B xenograft tumors; 50 mg/kg,no statistical difference
same,CRPC tumor growth,C4-2B xenograft tumors; [5],significant decrease
same,tumor weight,C4-2B xenograft tumors; [5],significant decrease
same,"AR, PSA & TMPRSS2 mRNAs levels in tumors",C4-2B xenograft tumors; qRT-PCR of xenograft tumors,significant reduction
same,Xenograft tumor growth,[2],displayed sensitivity
same,AR-V7 mRNA and variant protein levels,AR-V7,significantly reduced
same,H4 Y88-phosphorylation,[3],suppressed
same,pY88-H4 marks at AREM1-3 sites,[4]; ChIP real time PCR,erased
same,"WDR5, MLL2, H3K4me3 methyl marks and RNA Pol II at AREM1-3 sites",[4]; absence of androgen,significantly reduced
same,Cell cycle,PC cells; 24 hr,arrest PC cells in G2 phase
same,Apoptosis,PC cells; C4-2B cells,inducing apoptosis
